Measurements published in US8883750B2, “Method of treating diabetes” (Gilead Sciences, Inc., priority 2002, dated 2014).

How the values were obtained:
[1] = system: angina patients with diabetes; experiment: CARISA study: hemoglobin A1c in angina patients with diabetes; format: in vivo, human; settings: 12 weeks; for Average absolute reduction in HbA1c compared to placebo: all diabetic patients (N=131); for Absolute reduction in HbA1c compared to placebo: diabetic patients on insulin (N=31)
Description: HbA1c levels were assayed following a modification of the method of Phillipov (Components of total measurement error for hemoglobin A1c determination. Phillipov, G., et al. Clin. Chem. (2001), 47(10):1851). (see FIG. 1) The […] (Combination Assessment of Ranolazine in Stable Angina) study randomized 823 symptomatic chronic angina patients on diltiazem, atenolol or amlodipine to ranolazine 750 mg bid, 1000 mg bid or placebo in a parallel, double-blind, 12 week study. Modified Bruce treadmill tests were performed at baseline, and after 2, 6, and 12 weeks of treatment at trough and peak plasma levels. The ranolazine formulation used in this study was that shown in Example 10.

[2] = Solubility of ranolazine in aqueous solutions as a function of pH; format: physicochemical
[3] = system: angina patients; experiment: Angina clinical trials using ranolazine: blood parameters (summary in background); format: in vivo, human
Description: One compound disclosed therein, (±)-N-(2,6-dimethylphenyl)-4-[2-hydroxy-3-(2-methoxyphenoxy)-propyl]-1-piperazineacetamide (known as ranolazine) is undergoing clinical trials for the treatment of angina. […] Ranolazine was also found to reduce triglyceride levels in non-diabetic patients. Ranolazine was also found to lower glucose plasma levels and, over the long term, total cholesterol levels, while increasing HDL cholesterol levels. Thus, ranolazine provides a method of treating diabetes pre-diabetes, or the non-diabetes condition by reducing the levels of potentially toxic metabolites in blood and/or complications associated with diabetes. Ranolazine also can reduce the number of medications necessary for a patient with both cardiovascular problems and diabetes or pre-diabetes.

[4] = system: patients with chronic angina; experiment: MARISA study: treadmill exercise capacity, ranolazine alone; format: in vivo, human; settings: N=191
Description: (§1) Angina frequency and nitroglycerin consumption were reduced by ranolazine. The ranolazine formulation used in the CARISA and MARISA studies was that shown in Example 10. The most frequently reported adverse events (dizziness constipation and nausea) were generally mild and occurred in fewer than 10% of patients. The potential use of ranolazine in diabetics is of interest because approximately one in four angina patients has diabetes.

[5] = system: diabetic patients; experiment: Open-label long-term ranolazine treatment of MARISA/CARISA diabetic patients; format: in vivo, human
Description: Efficacy and tolerability of ranolazine were similar in both diabetic and non-diabetic patients in both MARISA and CARISA. In diabetic patients in CARISA (N=131), ranolazine 750 and 1000 mg bid were associated with a mean absolute reduction in HbA1c of 0.48 percentage points and 0.70 percentage points, respectively, compared to placebo at 12 weeks (each p<0.01). The reductions versus placebo were greater in those patients on insulin (N=31; 0.84 and 1.05 percentage points), on 750 and 1000 mg bid (p<0.02 and p<0.01), respectively. Fasting glucose was not affected by ranolazine in diabetic patients in CARISA, regardless of insulin treatment; one hypoglycemic episode was reported on placebo and one on ranolazine.

[6] = system: symptomatic chronic angina patients; experiment: CARISA study: modified Bruce treadmill exercise tests and angina, ranolazine added to background anti-anginal therapy; format: in vivo, human; settings: for Prolongation of exercise duration at trough drug concentrations: Example 10 formulation
Description: (§2) The CARISA (Combination Assessment of Ranolazine in Stable Angina) study randomized 823 symptomatic chronic angina patients on diltiazem, atenolol or amlodipine to ranolazine 750 mg bid, 1000 mg bid or placebo in a parallel, double-blind, 12 week study. Modified Bruce treadmill tests were performed at baseline, and after 2, 6, and 12 weeks of treatment at trough and peak plasma levels. The ranolazine formulation used in this study was that shown in Example 10.
as §1

[7] = system: diabetic patients; experiment: CARISA study: glucose, triglyceride and cholesterol values of diabetic patients; format: in vivo, human; settings: for Glucose, change from baseline / Triglycerides, change from baseline: all diabetic patients, mean ± SEM; for Glucose, change from baseline: placebo change 1.2 ± 7.1; for Triglycerides, change from baseline: placebo change 26.3 ± 21.2
Description: The […] (Combination Assessment of Ranolazine in Stable Angina) study randomized 823 symptomatic chronic angina patients on diltiazem, atenolol or amlodipine to ranolazine 750 mg bid, 1000 mg bid or placebo in a parallel, double-blind, 12 week study. Modified Bruce treadmill tests were performed at baseline, and after 2, 6, and 12 weeks of treatment at trough and peak plasma levels. The ranolazine formulation used in this study was that shown in Example 10.

[8] = system: chronic angina patients; experiment: Adverse events in CARISA and MARISA; format: in vivo, human; settings: for Patients with at least one adverse event: CARISA
Description: as §2, §1

[9] = over 3 years of open-label treatment, combined MARISA/CARISA diabetic population
[10] = CARISA, diabetic and non-diabetic patients
[11] = first 12 weeks of treatment, diabetic patients in CARISA

Structure (SMILES): COc1ccccc1OCC(O)CN1CCN(CC(=O)Nc2c(C)cccc2C)CC1 (racemic) [ranolazine, N-(2,6-dimethylphenyl)-4-[2-hydroxy-3-(2-methoxyphenoxy)propyl]-1-piperazineacetamide]
- Average absolute reduction in HbA1c compared to placebo ([1]; 750 mg bid, p<0.01): 0.48 percentage points
- Absolute reduction in HbA1c compared to placebo ([1]; 750 mg bid, p<0.02): 0.84 percentage points
- Absolute reduction in HbA1c compared to placebo ([1]; 750 mg bid, p<0.02, listed as Ranolazine): 0.8 percentage points
- Average absolute reduction in HbA1c compared to placebo ([1]; 1000 mg bid, p<0.01): 0.70 percentage points
- Absolute reduction in HbA1c compared to placebo ([1]; 1000 mg bid, p<0.01): 1.05 percentage points
- Absolute reduction in HbA1c compared to placebo ([1]; 1000 mg bid, p<0.01, listed as Ranolazine): 1.1 percentage points
- Solubility in aqueous solutions (in words) ([2]; aqueous solutions having a pH above about 6.5): relatively insoluble
- USP Solubility Class ([2]; solution pH 4.81): Freely Soluble
- USP Solubility Class ([2]; solution pH 4.89): Soluble
- USP Solubility Class ([2]; solution pH 4.90): Soluble
- USP Solubility Class ([2]; solution pH 5.04): Soluble
- USP Solubility Class ([2]; solution pH 5.35): Sparingly Soluble
- USP Solubility Class ([2]; solution pH 5.82): Slightly soluble
- USP Solubility Class ([2]; solution pH 6.46): Slightly soluble
- USP Solubility Class ([2]; solution pH 6.73): Very slightly soluble
- USP Solubility Class ([2]; solution pH 7.08): Very slightly soluble
- USP Solubility Class ([2]; solution pH 7.59 (unbuffered water)): Very slightly soluble
- USP Solubility Class ([2]; solution pH 7.79): Very slightly soluble
- USP Solubility Class ([2]; solution pH 12.66): Very slightly soluble
- Glucose plasma levels ([3]; angina clinical trials): lower
- HDL cholesterol levels ([3]; angina clinical trials): increasing
- Hemoglobulin A1 (HbA1c) levels ([3]; diabetic angina patients): reduced
- Triglyceride levels ([3]; diabetic angina patients, over the long term): reduced
- Triglyceride levels ([3]; non-diabetic patients): reduce
- Total cholesterol levels ([3]; over the long term): lower
- Treadmill exercise capacity [4]: increased
- Decrease of HbA1c from baseline ([5]; after 12-24 months of open-label treatment, diabetic patients): 1.1 percentage points
- HDL cholesterol [5, 9]: continued to increase
- LDL cholesterol [5, 9]: decreased from baseline
- Total cholesterol [5, 9]: decreased from baseline
- Prolongation of exercise duration at trough drug concentrations ([6]; 750 mg bid, angina patients with diabetes): 29 s
- Prolongation of exercise duration at trough drug concentrations ([6]; 750 mg bid, non-diabetic angina patients): 22 s
- Prolongation of exercise duration at trough drug concentrations ([6]; 1000 mg bid, angina patients with diabetes): 34 s
- Prolongation of exercise duration at trough drug concentrations ([6]; 1000 mg bid, non-diabetic angina patients): 21 s
- Angina frequency [6, 10]: decreased
- Time to angina [6, 10]: increased
- Angina frequency ([6]; MARISA and CARISA): reduced
- Nitroglycerin consumption ([6]; MARISA and CARISA): reduced
- Treadmill exercise capacity ([6]; added to atenolol, diltiazem, or amlodipine, CARISA, N=823): increased
- Exercise duration (ED) at trough and peak (in words) ([6]; similarly in diabetic and non-diabetic patients): prolonged
- Glucose, change from baseline ([7]; 750 mg bid, baseline 168 ± 8.0): 8.0 ± 8.8 mg/dL
- Triglycerides, change from baseline ([7]; 750 mg bid, baseline 192.0 ± 14.5): 21.2 ± 13.5 mg/dL
- Glucose, change from baseline ([7]; 1000 mg bid, baseline 165.2 ± 7.8): 1.7 ± 7.2 mg/dL
- Triglycerides, change from baseline ([7]; 1000 mg bid, baseline 196 ± 17.5): -7.3 ± 9.3 mg/dL
- Fasting glucose ([7]; diabetic patients in CARISA, regardless of insulin treatment): not affected
- HDL/LDL ratio [7, 11]: changed little
- Mean increase in HDL cholesterol [7, 11]: up to 5 mg/dL
- Mean increase in LDL cholesterol [7, 11]: ≤ 11 mg/dL
- Mean increase in total cholesterol [7, 11]: up to 16 mg/dL
- Patients with the most frequently reported adverse events (dizziness constipation and nausea) ([8]; CARISA and MARISA, generally mild): < 10%
- Patients with at least one adverse event ([8]; diabetic patients, 750 mg bid (placebo 25%)): 25%
- Patients with at least one adverse event ([8]; diabetic patients, 1000 mg bid (placebo 25%)): 34%
- Patients with at least one adverse event ([8]; non-diabetic patients, 750 mg bid (placebo 27%)): 33%
- Patients with at least one adverse event ([8]; non-diabetic patients, 1000 mg bid (placebo 27%)): 32%
- Hypoglycemic episodes reported ([8]; diabetic patients in CARISA (one on placebo)): one
